From US20140088073A1, “METHODS FOR DETERMINING WHETHER A PATIENT SHOULD BE ADMINISTERED A DRUG THAT INHIBITS CHOLESTEROL ABSORPTION” (Boston Heart Diagnostics Corporation, priority 2012, published 2014)

Columns and labels:
[1] = tested on: patients with coronary heart disease; conditions: comparing sterol/cholesterol ratios; previous studies; cited from earlier work
[2] = tested on: hypercholesterolemic subjects; assay: EASE study post hoc analysis: plasma lathosterol and β-sitosterol by gas chromatography mass spectrometry; format: in vivo, human; conditions: for B-sitosterol / B-sitosterol/Lathosterol / B-sitosterol/Total C / Lathosterol / Lathosterol/Total C: baseline during ongoing statin therapy, by statin type, mean ± SD
Description: (§1) Briefly, hypercholesterolemic subjects (n=874) on statins received ezetimibe 10 mg/day. Plasma lipids, lathosterol, and β-sitosterol were measured at baseline and on treatment.
(§2) This study included subjects from the ezetimibe add-on to statin arm of the EASE study (http://clinicaltrials.gov identifier NCT00092586; Study Protocol 040). Details of the study design and outcomes have been published previously. (See Pearson T A, Denke M A, McBride P E, Battisti W P, Brady W E, Palmisano J. A community-based, randomized trial of ezetimibe added to statin therapy to attain NCEP ATP III goals for LDL cholesterol in hypercholesterolemic patients: the ezetimibe add-on to statin for effectiveness (EASE) trial. Mayo Clin Proc 2005; 80:587-95; Pearson T A, Denke M A, McBride P E, et al. Effectiveness of ezetimibe added to ongoing statin therapy in modifying lipid profiles and low-density lipoprotein cholesterol goal attainment in patients of different races and ethnicities: a substudy of the Ezetimibe add-on to statin for effectiveness trial. Mayo Clin Proc 2006; 81:1177-85.)
(§3) Briefly, the EASE study was a multicenter, randomized, double-blind, placebo-controlled, 6-week parallel-group study. Participants with hypercholesterolemia were recruited from community based practices across the United States. Inclusion criteria were: 1) age ≧18 years, 2) on a stable, approved dose of any statin, 3) following a cholesterol-lowering diet for ≧6 weeks before study entry, and 4) LDL-C levels above risk-based NCEP ATP III targets. Subjects receiving lipid-altering agents other than statins during the 6 weeks before screening were excluded. Patients were randomized to receive ezetimibe 10 mg/day or placebo plus their current statin therapy and dose for 6 weeks. Statin type and dose were maintained throughout the study. The research protocol was approved by the investigational review boards at each site, and all participants provided written informed consent prior to study start.
(§4) For this current post hoc analysis, we assessed subjects who were randomized into the ezetimibe 10 mg plus statin arm of the EASE study (n=1940). Of the 1124 subjects with samples available for measurement, only those who had complete sterol and lipid data at baseline and at the end of the 6-week study were included in this analysis (n=874). The mean age and other baseline characteristics of those included and excluded from this analysis were similar. Comparison of subjects was based on statin type or potency (low, medium, high) subgroups. The low potency statin group (predicted LDL-C reduction of ˜20-30%) included subjects receiving simvastatin ≦10 mg/day, lovastatin ≦20 mg/day, pravastatin ≦20 mg/day, and fluvastatin ≦40 mg/day. The medium potency statin group (predicted LDL-C reduction of ˜31-45%) included subjects receiving simvastatin >10 to ≦40 mg/day, atorvastatin ≦20 mg/day, lovastatin >20 to 80 mg/day, pravastatin >20 to 80 mg/day, and fluvastatin >40 to 80 mg/day.
(§5) Plasma total cholesterol (total C), high-density lipoprotein cholesterol (HDL-C), and triglycerides (TG) were analyzed using standardized methods at the central laboratory of the trial (PPD Global Central Labs, Highland Heights, Kentucky, USA). LDL-C was calculated using the Friedewald formula. (See Friedewald W T, Levy R I, Fredrickson D S. Estimation of the concentration of low-density lipoprotein cholesterol in plasma, without use of the preparative ultracentrifuge. Clin Chem 1972; 18:499-502.) Non-HDL-C was calculated by subtracting HDL-C from total C. Apolipoprotein (Apo) A-I, Apo B, and high-sensitivity C-reactive protein (hs-CRP) were measured by automated immunoassays at the central laboratory. Within and between coefficients for all assays were <10%. Plasma lathosterol and β-sitosterol were quantified by gas chromatography mass spectrometry after lipid extraction as previously described in Sudhop T, Lutjohann D, Kodal A, et al. Inhibition of intestinal cholesterol absorption by ezetimibe in humans. […]

[3] = tested on: hypercholesterolemic subjects; assay: EASE study post hoc analysis: plasma lipids, apolipoproteins and hs-CRP, ezetimibe add-on to ongoing statin therapy; format: in vivo, human; conditions: for Triglyceride / Apo A1 / Apo B / HDL-C / Non-HDL-C / Total C / Total C/HDL-C ratio / LDL-C / hs-CRP: baseline during ongoing statin therapy, by statin type; for Apo A1 / Apo B / HDL-C / Non-HDL-C / Total C / Total C/HDL-C ratio / LDL-C: mean ± SD; for LDL-C: Friedewald formula; for hs-CRP: median ± robust SD; for reductions from baseline in LDL-C / mean percent LDL-C reduction / percent LDL-C reduction from baseline: 6 weeks; for reductions from baseline in LDL-C: unadjusted data; for mean percent LDL-C reduction / percent change from baseline in LDL-C / percent change from baseline in non-HDL-C / percent change from baseline in total C/HDL-C: ezetimibe add-on
Description: as §1, §2, §3, §4, §5

[4] = literature; cited from earlier work
[5] = overall study population, ezetimibe add-on to statin, 6 weeks
[6] = subjects with baseline sitosterol/lathosterol above the median
[7] = subjects with baseline sitosterol/lathosterol ≦ the median

## CC(C)c1c(C(=O)Nc2ccccc2)c(-c2ccccc2)c(-c2ccc(F)cc2)n1CC[C@@H](O)C[C@@H](O)CC(=O)O [Atorvastatin, atorvastatin]
[1]
  increase of plant sterols: 82%
  reduction of precursor sterols: −50%
[2]
  B-sitosterol: 5.40 ± 2.93 µmol/L
  B-sitosterol/Lathosterol: 4.22 ± 4.39
  B-sitosterol/Total C: 1.01 ± 0.57 μmol/mmol
  Lathosterol: 2.20 ± 1.70 µmol/L
  Lathosterol/Total C: 0.39 ± 0.26 μmol/mmol
[3]
  Triglyceride: 149.0 ± 85.6 mg/dL
  Apo A1: 156.3 ± 26.1 mg/dL
  Apo B: 129.2 ± 25.4 mg/dL
  HDL-C: 47.8 ± 10.7 mg/dL
  Non-HDL-C: 162.0 ± 33.6 mg/dL
  Total C: 209.7 ± 35.4 mg/dL
  Total C/HDL-C ratio: 4.55 ± 1.05
  LDL-C: 130.0 ± 30.9 mg/dL
  hs-CRP: 2.40 ± 3.53 mg/L

## CC[C@H](C)C(=O)O[C@H]1C[C@H](O)C=C2C=C[C@H](C)[C@H](CC[C@@H](O)C[C@@H](O)CC(=O)O)[C@H]21 [Pravastatin, pravastatin]
[2]
  B-sitosterol: 4.72 ± 2.51 µmol/L
  B-sitosterol/Lathosterol: 2.11 ± 2.10
  B-sitosterol/Total C: 0.86 ± 0.48 μmol/mmol
  Lathosterol: 3.08 ± 1.69 µmol/L
  Lathosterol/Total C: 0.55 ± 0.26 μmol/mmol
[3]
  Triglyceride: 155.0 ± 80.0 mg/dL
  Apo A1: 160.5 ± 28.2 mg/dL
  Apo B: 131.3 ± 26.0 mg/dL
  HDL-C: 48.6 ± 12.0 mg/dL
  Non-HDL-C: 166.9 ± 34.5 mg/dL
  Total C: 215.5 ± 34.9 mg/dL
  Total C/HDL-C ratio: 4.65 ± 1.25
  LDL-C: 133.1 ± 28.3 mg/dL
  hs-CRP: 2.70 ± 4.09 mg/L

## CCC(C)(C)C(=O)O[C@H]1C[C@@H](C)C=C2C=C[C@H](C)[C@H](CC[C@@H]3C[C@@H](O)CC(=O)O3)[C@H]21 [Simvastatin, simvastatin]
[2]
  B-sitosterol: 4.33 ± 2.17 µmol/L
  B-sitosterol/Total C: 0.82 ± 0.40 μmol/mmol
  Lathosterol: 2.47 ± 1.68 µmol/L
  Lathosterol/Total C: 0.46 ± 0.28 μmol/mmol
[3]
  Triglyceride: 149.0 ± 88.4 mg/dL
  Apo A1: 157.7 ± 26.3 mg/dL
  Apo B: 125.8 ± 23.2 mg/dL
  HDL-C: 48.2 ± 11.8 mg/dL
  Non-HDL-C: 157.4 ± 30.2 mg/dL
  Total C: 205.5 ± 31.4 mg/dL
  Total C/HDL-C ratio: 4.46 ± 1.10
  LDL-C: 124.3 ± 26.1 mg/dL
  hs-CRP: 2.50 ± 3.81 mg/L

## O=C1[C@H](CC[C@H](O)c2ccc(F)cc2)[C@@H](c2ccc(O)cc2)N1c1ccc(F)cc1 [ezetimibe]
[2]; [5]
  mean lathosterol levels increased by: 52%
  mean lathosterol/cholesterol ratio increased by: 83.8%
  mean β-sitosterol levels decreased by: 47.4%
  mean β-sitosterol/cholesterol ratio decreased by: 36.3%
  overall percent change in the mean β-sitosterol/lathosterol ratio: −52.4%
[4]
  reduces LDL-C levels by: 15-20%
[3]; addition of ezetimibe to any statin
  LDL-C lowered by: 23-26%
[3]; ezetimibe 10 mg/day added to ongoing high potency statin
  reductions from baseline in LDL-C: −29.1%
[3]; ezetimibe 10 mg/day added to ongoing low potency statin
  reductions from baseline in LDL-C: −22.7%
[3]; ezetimibe 10 mg/day added to ongoing medium potency statin
  reductions from baseline in LDL-C: −25.0%
[3]; high potency statin group
  mean percent LDL-C reduction: 29.1%
[3]; low potency statin group
  mean percent LDL-C reduction: 22.7%
[3]; medium potency statin group
  mean percent LDL-C reduction: 25.0%
[3]; [6]
  percent change from baseline in LDL-C: −26.7%
  percent change from baseline in non-HDL-C: −24.2%
  percent change from baseline in total C/HDL-C: −19.0%
[3]; [7]
  percent change from baseline in LDL-C: −24.1%
  percent change from baseline in non-HDL-C: −21.6%
  percent change from baseline in total C/HDL-C: −17.0%
[3]; ezetimibe combination with ongoing atorvastatin
  percent LDL-C reduction from baseline: 26.4%
[3]; ezetimibe combination with ongoing lovastatin or fluvastatin
  percent LDL-C reduction from baseline: 24.1%
[3]; ezetimibe combination with ongoing pravastatin
  percent LDL-C reduction from baseline: 23.1%
[3]; ezetimibe combination with ongoing simvastatin
  percent LDL-C reduction from baseline: 26.4%
